For experiment [1], the target named is T1, GID4 (Homo sapiens, UniProt Q8IVV7).
T1 construct: residues 116-300, N-terminal 6xHis-SUMO tag (DSF construct)
T1 sequence (Q8IVV7 1-300): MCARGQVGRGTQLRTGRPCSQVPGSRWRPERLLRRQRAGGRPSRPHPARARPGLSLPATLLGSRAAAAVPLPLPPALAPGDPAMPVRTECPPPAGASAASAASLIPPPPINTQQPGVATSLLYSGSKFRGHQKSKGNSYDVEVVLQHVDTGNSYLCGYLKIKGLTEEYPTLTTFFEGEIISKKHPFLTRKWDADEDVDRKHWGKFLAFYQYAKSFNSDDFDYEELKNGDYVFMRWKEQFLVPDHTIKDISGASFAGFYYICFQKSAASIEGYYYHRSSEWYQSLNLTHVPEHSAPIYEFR
The arrangement: Differential scanning fluorimetry, thermal shift of GID4. The note with it: binder. As for the experimental part: Following the identification of the binding pocket and the key interactions of the initial fragment, we initiated the synthesis of a series of analogs to explore the structure-activity relationship (SAR) (Table 1). The resulting changes in affinity were evaluated using surface plasmon resonance (SPR) and differential scanning fluorimetry (DSF). […] In the next step, we replaced the 3-Cl group to find an additional potency boost. […] MATERIALS AND METHODS Recombinant Protein Expression and Purification GID4 Expression and Purification Human Glucose-induced degradation protein 4 homolog (Gid4, UniProt ID: Q8IVV7) residues 124-289 were cloned into a vector to generate a N-terminal 6xHis-SUMO-tag for crystallography studies, residues 116-300 were cloned into a vector to generate a N-terminal 6xHis-SUMO-tag for DSF studies and residues 116-300 were cloned into a vector to generate a N-terminal Strep-SUMO-3C-6xHis-AVI-tag for SPR experiments. All constructs were verified by sequencing. Protein was expressed by transforming plasmid into chemically competent recombinant E. coli BL21(DE3) strain. E coli was cultured in LB medium supplemented with 50 µg/mL kanamycin in shaker flasks at 37 °C and 160 rpm. Once an optical density at 600 nm (OD600) reached 0.5-0.6, protein expression was induced by an addition of 0.1 mM IPTG.

Experiment [2] addresses T2, GID4 (Homo sapiens, UniProt Q8IVV7).
T2 construct: residues 116-300; N-terminal Strep-SUMO-3C-6xHis-Avi, HRV-3C cleaved, Avi-tag kept and biotinylated; E. coli BL21(DE3)
T2 sequence (Q8IVV7 116-300): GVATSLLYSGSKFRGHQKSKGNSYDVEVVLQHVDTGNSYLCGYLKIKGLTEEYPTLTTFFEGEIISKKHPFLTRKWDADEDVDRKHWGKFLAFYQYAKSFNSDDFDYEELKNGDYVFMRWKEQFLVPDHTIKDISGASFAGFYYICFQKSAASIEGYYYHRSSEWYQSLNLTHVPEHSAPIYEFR
The experiment can be described thus: SPR, steady-state affinity. Format: binding. From the text: SPR, steady-state affinity on GID4
(SPR reads the build-up and loss of mass on a sensor chip optically.)

pKd: −log10 of the molar value.

One may read the pKd as the Kd on a negative log10 scale, so that one unit is a factor of ten. A low value points to a large Kd.

With `NC(=Nc1ccccc1)N1CCCCC1` [compound 1], the “ΔTm by DSF (°C)” value on GID4 [1] was determined as 1.0 ± 0.06 °C. The negative logarithm of the Kd (pKd) on GID4 [2] was 4.10.

Source of the values: paper doi:10.1101/2025.07.01.662521v3, “Ligand-induced Conformational Plasticity of the CTLH E3 Ligase Receptor GID4” (biorxiv, 2026).
